Data published in ChEMBL document CHEMBL1201862, “PubChem BioAssay data set” (2004).
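The compound was tested at five concentrations on cells cultured in 96-well plates, with a 48-hour exposure period. GI50 = concentration required for 50% inhibition of growth.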 Active and inactive are the calls of the source. Rule as the data show it: active = GI50 up to about 1.1 µM and inactive = higher. Peptide text beside a SMILES is read from it. * marks the point of attachment. Cbz = O=C(OCc1ccccc1)*; Boc = CC(C)(C)OC(=O)*; OBn = c1ccc(CO*)cc1

Legend:
Assay in all cases: NCI tumour cell line growth inhibition, 48 h
786-0 = test system: 786-0
ACHN = test system: ACHN
BT-549 = test system: BT-549
COLO 205 = test system: COLO 205
KM12 = test system: KM12
MDA-MB-231 = test system: MDA-MB-231
MDA-N = test system: MDA-N
MOLT-4 = test system: MOLT-4
NCI-H23 = test system: NCI-H23
OVCAR-5 = test system: OVCAR-5
RXF 393 = test system: RXF 393
SF-539 = test system: SF-539
SN12C = test system: SN12C
SNB-19 = test system: SNB-19
SNB-75 = test system: SNB-75
UACC-62 = test system: UACC-62
UO-31 = test system: UO-31
NCI-H460 = test system: NCI-H460
OVCAR-4 = test system: OVCAR-4
HCC 2998 = test system: HCC 2998

Measured: GI50

NC(=O)Cc1ncn(-c2ccccc2)n1
inactive: 786-0 > 100 µM | ACHN > 100 µM | BT-549 > 100 µM | COLO 205 > 100 µM | KM12 > 100 µM | MDA-MB-231 > 100 µM | MDA-N > 100 µM | MOLT-4 > 100 µM | NCI-H23 > 100 µM | OVCAR-5 > 100 µM | RXF 393 > 100 µM | SF-539 > 100 µM | SN12C > 100 µM | SNB-19 > 100 µM | SNB-75 > 100 µM | UACC-62 > 100 µM | UO-31 > 100 µM

CN(C(=O)Cc1cc(Cl)c(Cl)cc1N=C=S)[C@H]1CCCC[C@@H]1N1CCCC1
inactive: 786-0 12.7 µM | ACHN 15.4 µM | BT-549 15.1 µM | COLO 205 9.73 µM | KM12 14.8 µM | MDA-MB-231 14.3 µM | MDA-N 14.8 µM | MOLT-4 3 µM | NCI-H23 15.2 µM | NCI-H460 7.36 µM | OVCAR-4 13.3 µM | OVCAR-5 16.9 µM | RXF 393 4.45 µM | SF-539 23.6 µM | SN12C 16.6 µM | SNB-19 13.9 µM | SNB-75 14.6 µM | UACC-62 16.4 µM | UO-31 15.5 µM

CC1(C)N=C(N)N=C(N)N1c1cccc(C(=O)Nc2ccc(S(=O)(=O)F)cc2)c1
inactive: 786-0 > 100 µM | ACHN > 100 µM | BT-549 > 100 µM | COLO 205 > 100 µM | KM12 > 100 µM | MDA-MB-231 > 100 µM | MDA-N > 100 µM | MOLT-4 > 100 µM | NCI-H23 > 100 µM | NCI-H460 > 100 µM | OVCAR-4 > 100 µM | OVCAR-5 > 100 µM | RXF 393 > 100 µM | SF-539 > 100 µM | SN12C > 100 µM | SNB-19 > 100 µM | SNB-75 > 100 µM | UACC-62 > 100 µM | UO-31 > 100 µM

COC(=O)C1CCC(=O)N1C(c1ccc2c(c1)OCO2)c1ccc2c(c1)OCO2 (centres undefined)
inactive: 786-0 > 100 µM | ACHN > 100 µM | BT-549 > 100 µM | COLO 205 > 100 µM | HCC 2998 > 100 µM | KM12 > 100 µM | MDA-MB-231 > 100 µM | MDA-N > 100 µM | MOLT-4 > 100 µM | NCI-H23 > 100 µM | NCI-H460 > 100 µM | OVCAR-4 > 100 µM | OVCAR-5 > 100 µM | SF-539 > 100 µM | SN12C > 100 µM | SNB-19 > 100 µM | SNB-75 > 100 µM | UACC-62 > 100 µM | UO-31 51.9 µM

CC(=O)O[C@H]1CC[C@@]2(C)C(=CC[C@H]3[C@@H]4C/C(=C\c5ccc(N(C)C)cc5)[C@H](OC(C)=O)[C@@]4(C)CC[C@@H]32)C1
inactive: 786-0 4.36 µM | ACHN 8.71 µM | BT-549 12 µM | COLO 205 4.54 µM | KM12 11.9 µM | MDA-MB-231 12.5 µM | MDA-N 13.5 µM | MOLT-4 5.98 µM | NCI-H23 13.1 µM | NCI-H460 5.19 µM | OVCAR-4 14.7 µM | OVCAR-5 19.6 µM | RXF 393 9.91 µM | SF-539 10.7 µM | SN12C 14.7 µM | SNB-19 13 µM | SNB-75 15.8 µM | UACC-62 6.41 µM | UO-31 11.3 µM

O=c1c(Sc2c(SCSc3cnc4ccccc4c3Sc3c[nH]c4ccccc4c3=O)cnc3ccccc23)c[nH]c2ccccc12
inactive: 786-0 > 100 µM | ACHN > 100 µM | BT-549 > 100 µM | COLO 205 > 100 µM | HCC 2998 > 100 µM | KM12 > 100 µM | MDA-MB-231 34.9 µM | MDA-N > 100 µM | MOLT-4 > 100 µM | NCI-H23 > 100 µM | NCI-H460 > 100 µM | OVCAR-4 96.6 µM | OVCAR-5 > 100 µM | SF-539 > 100 µM | SN12C > 100 µM | SNB-19 46.6 µM | SNB-75 > 100 µM | UACC-62 43.3 µM | UO-31 > 100 µM

CC(C)(C)OC(=O)CC(NC(=O)OC(C)(C)C)C(=O)Oc1ccc([N+](=O)[O-])cc1 (centres undefined)
inactive: 786-0 > 100 µM | ACHN > 100 µM | BT-549 > 100 µM | COLO 205 > 100 µM | KM12 > 100 µM | MDA-MB-231 > 100 µM | MDA-N > 100 µM | MOLT-4 > 100 µM | NCI-H23 > 100 µM | NCI-H460 > 100 µM | OVCAR-4 > 100 µM | OVCAR-5 > 100 µM | RXF 393 > 100 µM | SF-539 > 100 µM | SN12C > 100 µM | SNB-19 > 100 µM | SNB-75 > 100 µM | UACC-62 11.1 µM | UO-31 > 100 µM

CCc1c(CN)c(CC)c(CNC2=NCCN2)c(CC)c1CNC1=NCCN1
inactive: 786-0 > 100 µM | ACHN > 100 µM | BT-549 > 100 µM | COLO 205 > 100 µM | HCC 2998 > 100 µM | KM12 > 100 µM | MDA-N > 100 µM | MOLT-4 > 100 µM | NCI-H23 > 100 µM | NCI-H460 > 100 µM | OVCAR-4 > 100 µM | OVCAR-5 > 100 µM | RXF 393 > 100 µM | SF-539 > 100 µM | SN12C > 100 µM | SNB-19 > 100 µM | SNB-75 > 100 µM | UACC-62 > 100 µM | UO-31 > 100 µM

O=c1c2c([N+](=O)[O-])cccc2nc2[nH]c3ccccc3n12
inactive: 786-0 29.1 µM | ACHN 13.9 µM | BT-549 20.5 µM | COLO 205 40.7 µM | HCC 2998 19.3 µM | KM12 32.4 µM | MDA-MB-231 14.7 µM | MDA-N > 75 µM | MOLT-4 > 75 µM | NCI-H23 32.9 µM | NCI-H460 20.9 µM | OVCAR-4 11.6 µM | OVCAR-5 > 75 µM | RXF 393 13.8 µM | SF-539 13.3 µM | SN12C 25.6 µM | SNB-19 30.9 µM | UACC-62 19.5 µM

C=CCN1CCC(OC(=O)C(O)(/C=C\CC)C2CCCC2)CC1 (centres undefined)
inactive: 786-0 > 100 µM | ACHN > 100 µM | BT-549 > 100 µM | COLO 205 > 100 µM | MDA-MB-231 > 100 µM | MDA-N > 100 µM | MOLT-4 > 100 µM | NCI-H23 8.71 µM | OVCAR-4 > 100 µM | OVCAR-5 > 100 µM | RXF 393 > 100 µM | SF-539 > 100 µM | SN12C > 100 µM | SNB-19 > 100 µM | SNB-75 > 100 µM | UACC-62 > 100 µM | UO-31 > 100 µM

CN(Cc1cnc2nc(N)nc(N)c2n1)c1ccc(C(=O)NCS(=O)(=O)O)cc1
inactive: 786-0 59.3 µM | ACHN 64.9 µM | BT-549 > 100 µM | COLO 205 > 100 µM | HCC 2998 > 100 µM | KM12 60.1 µM | MDA-MB-231 > 100 µM | MDA-N 63.1 µM | MOLT-4 68.2 µM | NCI-H23 > 100 µM | NCI-H460 92.7 µM | OVCAR-4 > 100 µM | OVCAR-5 > 100 µM | SF-539 85.7 µM | SN12C > 100 µM | SNB-19 > 100 µM | SNB-75 29.4 µM | UACC-62 > 100 µM | UO-31 > 100 µM

Cc1onc(-c2c(F)cccc2Cl)c1C(=O)N[C@@H]1C(=O)N2[C@@H]1SC(C)(C)[C@@H]2C(=O)O
inactive: 786-0 > 100 µM | ACHN > 100 µM | BT-549 > 100 µM | COLO 205 > 100 µM | KM12 > 100 µM | MDA-MB-231 > 100 µM | MDA-N > 100 µM | NCI-H23 > 100 µM | NCI-H460 > 100 µM | OVCAR-4 > 100 µM | OVCAR-5 > 100 µM | RXF 393 > 100 µM | SF-539 > 100 µM | SN12C > 100 µM | SNB-19 > 100 µM | SNB-75 > 100 µM | UACC-62 > 100 µM | UO-31 24.5 µM

COC(=O)C(CCCCNC(=O)OCc1ccccc1)NC(=O)C(CCC(=O)OCc1ccccc1)NC(=O)OC(C)(C)C (centres undefined) (Boc-Glu(OBn)-Lys(Cbz)-OMe; configuration not given here)
inactive: 786-0 > 100 µM | ACHN > 100 µM | BT-549 > 100 µM | COLO 205 > 100 µM | KM12 > 100 µM | MDA-MB-231 73.6 µM | MDA-N > 100 µM | MOLT-4 > 100 µM | NCI-H23 > 100 µM | NCI-H460 > 10 µM | OVCAR-4 57.3 µM | OVCAR-5 > 100 µM | RXF 393 > 100 µM | SF-539 > 100 µM | SN12C > 100 µM | SNB-19 40.2 µM | SNB-75 > 100 µM | UACC-62 43 µM | UO-31 > 100 µM

Cc1cn([C@H]2C=C[C@@H](CO)O2)c(=O)[nH]c1=O [STAVUDINE]
inactive: 786-0 652 µM | ACHN > 1000 µM | BT-549 327 µM | COLO 205 410 µM | HCC 2998 > 1000 µM | KM12 > 1000 µM | MDA-MB-231 > 1000 µM | MDA-N > 1000 µM | MOLT-4 > 1000 µM | NCI-H23 776 µM | OVCAR-4 > 1000 µM | OVCAR-5 > 1000 µM | SF-539 881 µM | SN12C > 1000 µM | SNB-19 > 1000 µM | SNB-75 796 µM | UACC-62 902 µM | UO-31 490 µM
